# Assay results reported in patent publication US10730886B2, “Compound having effect of inhibiting platelet aggregation and salt thereof, and composition for preventing or treating thrombotic diseases, containing same” (SHIN POONG PHARMACEUTICAL CO., LTD., priority 2015, dated 2020).
# Where two headings read alike, the source gives them in different places.
# How the values were obtained:
# [1] = test system: carotid artery shear stress model; experiment: Carotid artery shear stress model, amount of thrombus; format: in vivo, Sprague-Dawley rats; conditions: rat; for Amount of thrombus (mg, Mean ± SEM): 25 mg/kg oral, twice a day for 3 days after operation; for shear stress-induced thrombogenesis compared with the control group: oral
# Method: Vehicle (0.5% methylcellulose), clopidogrel (8 mg/kg), aspirin (50 mg/kg) or a candidate substance was orally administered to male Sprague-Dawley rats (250 to 300 g). 2 hours after administration, the rats were anesthetized by ketamine/rompun (ketamine/xylazine) cocktail 0.1 ml/100 g. Except for the normal control group, the right cervical skin of the experimental animals was incised to expose the common carotid artery. A surgical tube with a length of 1 mm and an inside diameter of 0.58 mm was inserted into the exposed carotid artery and tied with a single thread. The exposed site and the operation site were treated with an anti-adhesion agent, and then sutured for the animals to recover. After the surgery, vehicle, clopidogrel, aspirin or a candidate substance was orally administered to the rats twice a day for 3 days. On the fourth day, 2 hours after the final administration, urethane (100 mg/300 μl/100 g) was administered intraperitoneally to the rats to induce anesthesia, and the operation site was opened to separate a total of 1 cm of the blood vessel, 5 mm above and 5 mm below the surgical tube. The separated blood vessel was perfused with 0.2 ml of 0.9% saline at 0.3 ml/min to remove the remaining blood, and then maintained in 1 ml of protein lysis buffer (NaOH 2 g, Na2CO3 0.1 g in 500 ml D.W). After collected, the blood vessel thrombus was double-boiled in boiling water together with the protein lysis buffer. 200 μl of the reaction solution (10 ml bicinchoninic acid solution+200 μl 4% aqueous solution of copper sulfate) was added to 10 μl of the heated thrombus, and the mixture was reacted at 37° C. for 30 minutes and quantified with an ELISA reader (562 nm).
# [2] = test system: ADP-induced platelet aggregation, Human PRP; experiment: ADP-induced platelet aggregation in human PRP (lumi-aggregometer); format: cell-based; conditions: ADP 15-20 μM
# Method: To investigate whether the candidate substance has inhibition selectivity for shear-stress-induced platelet aggregation, which is by a physical stimulus, […] experiment was conducted by activating platelets with physiological agonists—i.e., thrombin, collagen and ADP—to study the inhibitory effect of the candidate substance.
# Human PRP (598.8 μl) was treated with 1.2 μl of the candidate substance per concentration (25, 100, 250 μM) and reacted at 37° C. for 3 minutes using a thermomixer. Then, PRP (495 μl) was put in the aggregometer cuvette and preincubated for 1 minute, followed by treatment with platelet aggregation-inducing reagent, thrombin (0.6-0.8 U/ml), collagen (2-5 μg/ml), or ADP (adenosine diphosphate, 15-20 μM) at the minimum concentration causing maximum aggregation. The degree of aggregation of the platelets was measured by a turbidity change using a lumi-aggregometer (Chrono-Log Co., USA). The turbidity of the PRP was considered as 0%, and the turbidity of the PPP was considered as 100%. During the measurement, the reaction mixture was continuously stirred at 1,000 rpm with a silicone-coated magnetic stir bar.
# [3] = test system: iron chloride (FeCl3)-induced thrombogenesis model; experiment: Arterial thrombosis model, FeCl3-induced carotid artery thrombogenesis; format: in vivo, Sprague-Dawley rats; conditions: rat, 25 mg/kg oral; for Time of thrombogenesis: FeCl3 applied 60 min after administration, occlusion time; for Fold (vs. Control): time of thrombogenesis vs. vehicle control
# Method: Vehicle (DMSO: Tween 80: DW=1:2:17) or candidate substance (25 mg/kg) was orally administered to overnight-fasted male Sprague-Dawley rats (250 to 300 g). 30 minutes after administration, the rats were anesthetized by intraperitoneal injection of urethane (1.25 g/kg). The anesthetized animals were restrained on the operating table, and the body temperature was maintained using a heating pad during the entire operating procedure. An incision was made around the neck of the animals to carefully expose the right carotid artery, and the adipose tissues attached to the blood vessels were carefully removed. Doppler flow probe (0.5 mm-diameter, MA0.5PSB, Transonic System Inc., USA) was fixed to the exposed carotid artery, and a doppler flow-meter (TS420, Transonic System Inc., USA) was connected thereto. 60 minutes after oral administration, a piece of Whatman No. 1 filter paper (2 mm×1 mm) soaked with 50% FeCl3 solution was attached to the underlying blood vessels to which the probe was fixed. The filter paper was removed after 10 minutes, and the change of blood flow due to thrombus formation in the carotid artery was measured for 60 minutes after the time point of removal. The occlusion time was defined as the time at which the blood flow became zero more than one minute for the first time.
# [4] = test system: Human Platelet Rich Plasma (PRP); experiment: Shear stress-induced platelet aggregation inhibition in human platelet rich plasma (PRP), cone-plate viscometer; format: cell-based; conditions: for inhibition at 25 µM: Homo sapiens, Platelet
# Method: 1-1. Measurement of Platelet Aggregation Inhibitory Effect Using Human Platelet Rich Plasma (PRP)
# Blood was collected from the veins of healthy male volunteers who had not taken any medication for more than 2 weeks. All related studies were conducted under the approval of the Seoul National University Institutional Review Board (IRB No. 1305/001-016). During the whole process of study the use of glass containers or glass pipettes was avoided, and the experiments were performed at room temperature. To separate platelet rich plasma (PRP), the blood was collected with 3.2% sodium citrate as an anticoagulant. The whole blood was centrifuged at 150 g for 15 minutes to obtain the supernatant (PRP), and the residue was centrifuged at 2,000 g for 20 minutes to obtain platelet poor plasma (PPP). The number of platelets of the PRP thus obtained was counted with an optical microscope using a hemacytometer. PRP was diluted with PPP so as to include 3×10^8 platelets per 1 ml, and then used in the experiments. PRP was put on a cone-plate viscometer (RotoVisco 1, Thermo Fischer Scientific, USA), and shear stress was applied to the PRP at 37° C. for 3 minutes at a shear rate of 10,800 s^−1. In order to evaluate candidate substances, prior to the induction of platelet aggregation, 598.8 μl of PRP was treated with 1.2 μl of 25 μM candidate substance and incubated at 37° C. for 3 minutes using a thermomixer. After applying the shear stress, 20 μl of PRP was fixed in 280 μl of a suspension buffer containing 0.5% glutaraldehyde (134 mM NaCl, 2.9 mM KCl, 1.0 mM MgCl2.6H2O, 10.0 mM HEPES, 5.0 mM dextrose, 12.0 mM NaHCO3, 0.34 mM Na2HPO4, 0.3% BSA, pH 7.4). Then, the number of single platelets in the suspension was counted using a hemacytometer. The degree of inhibition by the candidate substance was calculated according to the following formula (1). The degree of inhibition was determined by the method described below. No shear stress-applied group served as a control, and only shear stress-applied group served as positive control. Degree of inhibition (%)=[(1−A/B)×100]/[(1−A/C)×100] Formula 1
# A: Number of single platelets in the shear stress-applied sample after treatment with candidate substance
# B: Number of single platelets in the control group with no shear stress applied
# C: Number of single platelets in the positive control group with only shear stress applied
# [5] = 0.05 h, human PRP, 25 μM, shear rate 10,800 s^-1, 3 min, read-out: Degree of inhibition (%, Mean ± SEM)
# [6] = Table 1 summary bins, concentration and matrix not given, read-out: Inhibitory effect of shear stress-induced platelet aggregation
# [7] = human PRP, 25 μM, shear rate 10,800 s^-1, 3 min
Compound,"Amount of thrombus (mg, Mean ± SEM) [1] [mg]",shear stress-induced thrombogenesis compared with the control group [1],"Degree of platelet aggregation (%, Mean ± SEM) ([2]; compound 25 μM) [%]","Degree of platelet aggregation (%, Mean ± SEM) ([2]; compound 100 μM) [%]","Degree of platelet aggregation (%, Mean ± SEM) ([2]; compound 250 μM) [%]",Time of thrombogenesis [3] [s],"inhibition at 25 µM [4, 5] [%]","inhibition at 25 µM [4, 6] [%]","Degree of inhibition (%, Mean ± SEM) [4, 7] [%]",Fold (vs. Control) [3]
"O=C(c1ccc(O)c(O)c1)N1CCc2sccc2C1 [Example 1, (6,7-Dihydrothieno[3,2-c]pyridin-5(4H)-yl)(3,4-dihydroxyphenyl)methanone]",0.065 ± 0.005,"significantly, remarkably inhibited",77.5 ± 3.5,69.0 ± 6.0,78.0 ± 7.0,936 ± 120,20 to 30,20 to 30,23 ± 2,
"COc1cc(C(=O)N2CCc3sccc3C2)ccc1O [Example 12, (6,7-Dihydrothieno[3,2-c]pyridin-5(4H)-yl)(4-hydroxy-3-methoxyphenyl)methanone]",0.069 ± 0.007,"significantly, remarkably inhibited",76.0 ± 3.0,67.5 ± 2.5,77.0 ± 12.0,665 ± 77,20 to 30,20 to 30,25 ± 6,1.9
"CCc1occc(=O)c1OC(=O)c1ccc(O)c(OC)c1 [Example 13, 2-Ethyl-4-oxo-4H-pyran-3-yl 4-hydroxy-3-methoxybenzoate]",0.064 ± 0.006,"significantly, remarkably inhibited",75.5 ± 1.5,75.0 ± 1.0,71.5 ± 6.5,752 ± 69,20 to 30,20 to 30,26 ± 6,2.1
"COc1cc(C(=O)Oc2c(C)occc2=O)ccc1O [Example 14, 2-Methyl-4-oxo-4H-pyran-3-yl 4-hydroxy-3-methoxybenzoate]",0.066 ± 0.006,"significantly, remarkably inhibited",74.5 ± 2.5,75.0 ± 3.0,63.5 ± 5.5,615 ± 54,≥ 30,≥ 30,,1.7
"COc1ccc(NC(=O)c2ccc(O)c(OC)c2)c([N+](=O)[O-])c1 [Example 15, 4-Hydroxy-3-methoxy-N-(4-methoxy-2-nitrophenyl)benzamide]",0.070 ± 0.006,"significantly, remarkably inhibited",70.5 ± 2.5,68.5 ± 3.5,67.0 ± 4.0,816 ± 78,20 to 30,20 to 30,24 ± 8,2.3
"O=C(c1cc(O)ccc1O)N1CCc2sccc2C1 [Example 20, (6,7-Dihydrothieno[3,2-c]pyridin-5(4H)-yl)(2,5-dihydroxyphenyl)methanone]",0.068 ± 0.005,"significantly, remarkably inhibited",73.0 ± 2.0,69.0 ± 1.0,66.5 ± 2.5,2122 ± 265,≥ 30,≥ 30,,
"O=C(c1cc(O)ccc1O)N1CCC(c2noc3ccc(F)cc23)CC1 [Example 23, (2,5-Dihydroxyphenyl)(4-(5-fluorobenzo[d]isoxazol-3-yl)piperidin-1-yl)methanone]",0.071 ± 0.006,"significantly, remarkably inhibited",73.5 ± 1.5,66.0 ± 1.0,65.0 ± 0.0,674 ± 92,20 to 30,20 to 30,28 ± 3,1.9
